The values below come from patent publication US6280768A, “Berberine alkaloids as a treatment for chronic protozoally induced diarrhea” (PRM Pharmaceuticals, Inc., priority 1997, dated 2001).

One assay concerns Cryptosporidium parvum. The settings on record: in vivo; cited from earlier work.
In assay [1] the test system is E. intestinalis. The settings on record: cited from earlier work.
The test system of another assay is microsporidia. The settings on record: some AIDS patients; cited from earlier work.
A further assay concerns E. bieneusi. The note with it: cited from earlier work.
In another assay the test system is Enterocytozoon bieneusi. The note with it: cited from earlier work.
Another assay deals with microsporidiosis. The settings on record: cited from earlier work.
The subject of another assay is T.vaginalis. The assay is described as follows: In vitro growth inhibition of Trichomonas vaginalis. It counts as cell-based. The settings on record: for activity at 30 µg/mL / activity at 62 µg/mL / activity at 125 µg/mL / activity at 250 µg/mL / activity at 500 µg/mL / activity at 1000 µg/mL: 48 h; for activity at 30 µg/mL: 30 μg/ml; for activity at 62 µg/mL: 62 μg/ml; for activity at 125 µg/mL: 125 μg/ml; for activity at 250 µg/mL: 250 μg/ml; for activity at 500 µg/mL: 500 μg/ml. From the text:
(§1) The protozoa tested were established strains of 3 extracellular protozoan parasites; (1) Giardia lamblia, (2) Trichomonas vaginalis, (3) Entamoeba histolytica, and the intracellular microsporidian parasite (4) Encephalitozoon intestinalis.
(§2) Culture conditions and media for (1)-(3) and methods for assaying drug susceptibility were as described in Katiyar, S K and Edlind T D, Enhanced Antiparasitic Activity of Lipophilic Tetracyclines: Role of Uptake, Antimicrob. Agents Chemother., vol. 35:2198-2202 (1991), incorporated herein by reference.
(§3) Cultures of the extracellular parasites were started from frozen stocks and passaged several times over a 2-3 week period to ensure viability, maximal growth rate, and lack of contamination. On day 1 of the assay, log phase cultures were diluted to 5×10^4 cells/ml in fresh medium and aliquoted to 2 ml vials, which were filled to maintain anaerobic conditions. The berberine was dissolved and diluted in water to various concentrations and then added to the cultures. "negative controls" received the vehicle alone.
(§4) Cultures were incubated at 37° C. with slow rotation. After 48 hours (for T. vaginalis and G. lamblia) and 72 hours (for E. histolytica), cell numbers were determined using a hemocytometer. The concentration of compound inhibiting growth 50% (IC50) relative to controls was estimated from dose response plots. The assays were repeated at least twice.
(§5) Initially, the berberine was tested over a wide range of concentrations (0.1, 1, 10, 100 and 1000 μg/ml).

In a further assay the test system is E.histolytica. The assay is described as follows: In vitro growth inhibition of Entamoeba histolytica. The note with it: for activity at 30 µg/mL: 30 μg/ml; for activity at 125 µg/mL: 125 μg/ml; for activity at 500 µg/mL: 500 μg/ml; for activity at 1000 µg/mL: 1000 μg/ml. It counts as cell-based.
Description: as §1, §2, §3, §4, §5

In assay [2] the test system is E. intestinalis. The assay is described as follows: In vitro growth (spore numbers) of E. intestinalis in infected Vero cells. It counts as cell-based, Encephalitozoon intestinalis.
Description: as §1
Cultures of E. intestinalis infected African green monkey kidney (Vero) cells were kindly provided by G. S. Visvesvara, CDC, Atlanta, Ga. The E. intestinalis was originally isolated from the urine of an AIDS patient (J. Clin. Microbiol. 33:930-936, 1995).
Cells were grown in T25 flasks at 37° C. in a humidified CO2 incubator, and subcultured when confluent (every 3-4 days). The medium was MEM supplemented with Earle's salts, L-glutamine, 5% heat-inactivated fetal bovine serum, fungizone (2 μg/ml) and gentamicin (50 μg/ml). E. intestinalis spores were prepared by centrifugation of infected cell medium (3-4 days old) at 2000×g for 15 min, followed by suspension in fresh medium to give 1-20×10^4 spores/ml (determined with a hemocytometer). […]
Every 72-96 h after infection, the medium was completely removed, discarded, and replaced with fresh medium plus berberine. The medium from the 4th change (2-3 weeks post infection) was collected into tubes and spore numbers were determined in a hemocytometer. […] Consequently, spore numbers after 3-4 medium changes provided a quantitative measure of the effects of berberine on microsporidia growth.

A further assay deals with G.lamblia. The assay is described as follows: In vitro growth inhibition of Giardia lamblia. The note with it: Giardia duodenalis; for activity at 30 µg/mL / activity at 62 µg/mL / activity at 125 µg/mL / activity at 250 µg/mL / activity at 500 µg/mL / activity at 1000 µg/mL: 48 h; for activity at 30 µg/mL: 30 μg/ml; for activity at 62 µg/mL: 62 μg/ml; for activity at 125 µg/mL: 125 μg/ml; for activity at 250 µg/mL: 250 μg/ml; for activity at 500 µg/mL: 500 μg/ml; for activity at 1000 µg/mL: 1000 μg/ml. The class given is cell-based.
Description: as §1, §2, §3, §4, §5

[3] abbreviates: growth, 48 hours, estimated from dose response plots.

Where two headings read alike, the source gives them in different places.

`NC[C@@H]1O[C@H](O[C@H]2[C@@H](O)[C@H](O[C@@H]3[C@@H](O)[C@H](N)C[C@H](N)[C@H]3O[C@H]3O[C@H](CO)[C@@H](O)[C@H](O)[C@H]3N)O[C@@H]2CO)[C@H](N)[C@@H](O)[C@@H]1O` [paromomycin]: the “relapse after cessation of treatment” value in the assay with Cryptosporidium parvum is listed as “common”.

As to `CCCSc1ccc2nc(NC(=O)OC)[nH]c2c1` [albendazole], the “clearing E. intestinalis from the stools” value with E. intestinalis [1] (five AIDS patients) was “initially effective in clearing E. intestinalis from the stools”. Moreover, in the assay with E. intestinalis [1] (followed for more than one month), the “patients with spores of E. intestinalis again detected in stools” value is “two of four patients”. In the assay with E. intestinalis [1] (human, in vivo), the duration of relief entry was “relief was only temporary” and the “relapse during maintenance therapy” value is on record as “Relapse occurred in one patient”. For the same compound, the relief of diarrhea result in the assay with microsporidia is given as “temporarily relieve the diarrhea of some AIDS patients”. Also, the “E. bieneusi spores in small bowel biopsies” value in the assay on E. bieneusi (following treatment) is “spores were still present”. The “symptoms and parasite burden” value with E. bieneusi (some of 29 patients) was “improved symptoms and reduced the parasite burden in some of their 29 patients”. Moreover, the “reduction in parasite load” value in the assay with Enterocytozoon bieneusi (after oral treatment) was “no significant reduction in parasite load”. Moreover, in the assay on Enterocytozoon bieneusi (human, in vivo), the “changes in the parasite” value was “degenerative changes in the parasite”, the “patients relapsed within one month” value was “Four of five patients relapsed within one month” and the “relapse of the fifth patient” value was “the fifth patient relapsed within two months”. In the assay on Enterocytozoon bieneusi (six AIDS patients), the “resolution of chronic diarrhea” value is “effective in resolving the chronic diarrhea of six AIDS patients”. The remission of diarrhea with microsporidiosis (18 AIDS patients) was 70%. Besides, the “arrest of parasite development” value in the assay on microsporidiosis (human, in vivo) is “did not completely arrest development”. The “rate of parasite reproduction” value in the assay with microsporidiosis (interfering with tubulin polymerization) was “slow the rate of parasite reproduction”. For the same compound, in the assay with microsporidiosis (patients who responded), the parasite load entry was “reduction in parasite load in those patients who responded”.

With `COc1ccc2cc3[n+](cc2c1OC)CCc1cc2c(cc1-3)OCO2.Cl` [berberine hydrochloride, 5,6-Dihydro-9,10-dimethoxybenzo[g]-1,3-benzodioxolo[5,6-a]quinolizinium hydrochloride], the activity at 30 µg/mL was 93% in the assay on T.vaginalis (Exp. 1); 99% with T.vaginalis (Exp. 2); 96% in the assay on T.vaginalis (Exp. 3); 102% in the assay on E.histolytica (72 h, Exp. 1); 101% with E.histolytica (72 h, Exp. 2); 99% in the assay on G.lamblia (Exp. 1). The activity at 30 µg/mL with G.lamblia (Exp. 2) was determined as 97%. The activity at 62 µg/mL with T.vaginalis (Exp. 1) came out at 90%; in the assay on T.vaginalis (Exp. 2), 98%; with T.vaginalis (Exp. 3) it was 98%; in the assay with E.histolytica (72 h, 62 μg/ml, Exp. 2), 90%; in the assay on G.lamblia (Exp. 1), 89%; in the assay with G.lamblia (Exp. 2), 85%. Further, the activity at 62 µg/mL in the assay with G.lamblia (Exp. 3) is 88%. Besides, the activity at 125 µg/mL in the assay with T.vaginalis (Exp. 1) is 59%; in the assay with T.vaginalis (Exp. 2) it was 60%; with T.vaginalis (Exp. 3), 60%; in the assay with E.histolytica (72 h, Exp. 1) it was 100%; in the assay with E.histolytica (72 h, Exp. 2), 101%; in the assay on G.lamblia (Exp. 1), 79%. Also, the activity at 125 µg/mL in the assay on G.lamblia (Exp. 2) is 69%; with G.lamblia (Exp. 3) it was 75%. The activity at 250 µg/mL stood at 20% with T.vaginalis (Exp. 1); 28% in the assay with T.vaginalis (Exp. 2); 45% in the assay with T.vaginalis (Exp. 3); 101% in the assay on E.histolytica (72 h, 250 μg/ml, Exp. 2); 63% in the assay on G.lamblia (Exp. 1); 59% in the assay with G.lamblia (Exp. 2). Further, in the assay with G.lamblia (Exp. 3), the activity at 250 µg/mL came out at 52%. For the same compound, the activity at 500 µg/mL is 2% in the assay with T.vaginalis (Exp. 1); 3% with T.vaginalis (Exp. 2); 22% in the assay on T.vaginalis (Exp. 3); 100% in the assay on E.histolytica (72 h, Exp. 1); 96% in the assay with E.histolytica (72 h, Exp. 2); 40% with G.lamblia (Exp. 1). In addition, the activity at 500 µg/mL turned out to be 44% in the assay on G.lamblia (Exp. 2) and 32% with G.lamblia (Exp. 3). In addition, the activity at 1000 µg/mL in the assay with T.vaginalis (1000 μg/ml, Exp. 1, read-out: % growth) was 1%; with T.vaginalis (1000 μg/ml, Exp. 2, read-out: % growth), 1%; in the assay with T.vaginalis (read-out: % growth, 1000 μg/ml, Exp. 3) it was 6.8%; in the assay on E.histolytica (72 h, Exp. 1), 72%; in the assay with E.histolytica (72 h, Exp. 2), 76%; in the assay on G.lamblia (Exp. 1) it was 9%. In addition, the results for the activity at 1000 µg/mL in the assay on G.lamblia (Exp. 2) and in the assay on G.lamblia (Exp. 3) were 20% and 5%, respectively. In addition, the 50% inhibitory concentration (IC50) is 170 µg/mL in the assay on T.vaginalis (setting [3]); more than 1000 µg/mL in the assay on E.histolytica (growth, 72 hours, estimated from dose response plots); 350 µg/mL in the assay on G.lamblia (setting [3]). Further, the “activity against the microsporidium E. intestinalis” value in the assay on E. intestinalis [2] was “showed activity against the microsporidium E. intestinalis”.
